Experimental data from BindingDB's records for doi:10.1016/j.bmcl.2005.07.039 (Universit&#233, 2005).

Target: Sigma non-opioid intracellular receptor 1 (Cavia porcellus) (UniProt Q60492)
Experiment: Inhibitory activity against Opioid receptor sigma 1 in guinea pig cerebral cortex using [3H](+)-pentazocine as radio ligand at pH 7.5 for 150 min at 22 C

Chain of Sigma non-opioid intracellular receptor 1 (Cavia porcellus) (Q60492 whole entry, looked up): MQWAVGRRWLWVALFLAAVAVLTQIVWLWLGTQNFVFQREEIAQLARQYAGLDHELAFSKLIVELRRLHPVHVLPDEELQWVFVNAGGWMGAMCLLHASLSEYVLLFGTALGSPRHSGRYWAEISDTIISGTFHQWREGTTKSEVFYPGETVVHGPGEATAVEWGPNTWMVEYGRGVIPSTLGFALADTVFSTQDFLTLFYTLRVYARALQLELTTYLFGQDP

IC50 | Structure (SMILES)
29.5 nM | CN(CCCCCCn1c(O)c2n(c1=O)Cc1ccccc1C2)CCc1ccccc1 [(S)-2-[6-(Methyl-phenethyl-amino)-hexyl]-10,10a-dihydro-5H-imidazo[1,5-b]isoquinoline-1,3-dione]

Target: Sigma non-opioid intracellular receptor 1 (Cavia porcellus) (UniProt Q60492)
Experiment: Inhibitory activity against opioid receptor sigma 1 in guinea pig cerebral cortex using [3H](+)-pentazocine as radio ligand at pH 7.5 for 150 min at 22 degree C

Structure (SMILES) | IC50
CC(C)NC(=O)CN1CCN(CCn2c(O)c3n(c2=O)Cc2ccccc2C3)CC1 [2-{4-[2-((S)-1,3-Dioxo-1,5,10,10a-tetrahydro-imidazo[1,5-b]isoquinolin-2-yl)-ethyl]-piperazin-1-yl}-N-isopropyl-acetamide] | > 100 nM
CN1CCN(CCn2c(O)c3n(c2=O)Cc2ccccc2C3)CC1 [(S)-2-[2-(4-Methyl-piperazin-1-yl)-ethyl]-10,10a-dihydro-5H-imidazo[1,5-b]isoquinoline-1,3-dione] | > 100 nM
CN(CCc1ccccc1)CCn1c(O)c2n(c1=O)Cc1ccccc1C2 [(S)-2-[2-(Methyl-phenethyl-amino)-ethyl]-10,10a-dihydro-5H-imidazo[1,5-b]isoquinoline-1,3-dione] | 12.6 nM
O=c1n(CCCNC2CCN(Cc3ccccc3)CC2)c(O)c2n1Cc1ccccc1C2 [(S)-2-[3-(1-Benzyl-piperidin-4-ylamino)-propyl]-10,10a-dihydro-5H-imidazo[1,5-b]isoquinoline-1,3-dione] | 82.3 nM
O=c1n(CCCN2CCN(Cc3ccc4c(c3)OCO4)CC2)c(O)c2n1Cc1ccccc1C2 [(S)-2-[3-(4-Benzo[1,3]dioxol-5-ylmethyl-piperazin-1-yl)-propyl]-10,10a-dihydro-5H-imidazo[1,5-b]isoquinoline-1,3-dione] | 23.8 nM
O=c1n(CCCN2CCN(Cc3ccccc3)CC2)c(O)c2n1Cc1ccccc1C2 [(S)-2-[3-(4-Benzyl-piperazin-1-yl)-propyl]-10,10a-dihydro-5H-imidazo[1,5-b]isoquinoline-1,3-dione] | 32 nM
CN1CCN(CCCn2c(O)c3n(c2=O)Cc2ccccc2C3)CC1 [(S)-2-[3-(4-Methyl-piperazin-1-yl)-propyl]-10,10a-dihydro-5H-imidazo[1,5-b]isoquinoline-1,3-dione] | > 100 nM
CN(CCCn1c(O)c2n(c1=O)Cc1ccccc1C2)c1ccccc1 [(S)-2-[3-(Methyl-phenyl-amino)-propyl]-10,10a-dihydro-5H-imidazo[1,5-b]isoquinoline-1,3-dione] | > 100 nM
O=c1n(CCN2CCN(CCO)CC2)c(O)c2n1Cc1ccccc1C2 [(S)-2-{2-[4-(2-Hydroxy-ethyl)-piperazin-1-yl]-ethyl}-10,10a-dihydro-5H-imidazo[1,5-b]isoquinoline-1,3-dione] | > 100 nM
CN(C)CCCN1CCN(CCn2c(O)c3n(c2=O)Cc2ccccc2C3)CC1 [(S)-2-{2-[4-(3-Dimethylamino-propyl)-piperazin-1-yl]-ethyl}-10,10a-dihydro-5H-imidazo[1,5-b]isoquinoline-1,3-dione] | > 1000 nM
CN(CCCc1ccccc1)CCn1c(O)c2n(c1=O)Cc1ccccc1C2 [(S)-2-{2-[Methyl-(3-phenyl-propyl)-amino]-ethyl}-10,10a-dihydro-5H-imidazo[1,5-b]isoquinoline-1,3-dione] | 13.6 nM
O=c1n(CCCN2CCN(CCO)CC2)c(O)c2n1Cc1ccccc1C2 [(S)-2-{3-[4-(2-Hydroxy-ethyl)-piperazin-1-yl]-propyl}-10,10a-dihydro-5H-imidazo[1,5-b]isoquinoline-1,3-dione] | > 100 nM
CN(C)CCCN1CCN(CCCn2c(O)c3n(c2=O)Cc2ccccc2C3)CC1 [(S)-2-{3-[4-(3-Dimethylamino-propyl)-piperazin-1-yl]-propyl}-10,10a-dihydro-5H-imidazo[1,5-b]isoquinoline-1,3-dione] | > 100 nM

Continued, values first:

IC50 | Structure (SMILES)
9.6 nM | O=c1n(CCCNCc2ccccc2)c(O)c2n1Cc1ccccc1C2 [(S)-2-(3-Benzylamino-propyl)-10,10a-dihydro-5H-imidazo[1,5-b]isoquinoline-1,3-dione]
4.5 nM | CN(CCn1c(O)c2n(c1=O)Cc1ccccc1C2)Cc1ccccc1 [(S)-2-[2-(Benzyl-methyl-amino)-ethyl]-10,10a-dihydro-5H-imidazo[1,5-b]isoquinoline-1,3-dione]
10.5 nM | O=c1n(CCCNCCCCc2ccccc2)c(O)c2n1Cc1ccccc1C2 [(S)-2-[3-(4-Phenyl-butylamino)-propyl]-10,10a-dihydro-5H-imidazo[1,5-b]isoquinoline-1,3-dione]
2.1 nM | CN(CCCn1c(O)c2n(c1=O)Cc1ccccc1C2)CCc1ccccc1 [(S)-2-[3-(Methyl-phenethyl-amino)-propyl]-10,10a-dihydro-5H-imidazo[1,5-b]isoquinoline-1,3-dione]
4.2 nM | CN(CCCCn1c(O)c2n(c1=O)Cc1ccccc1C2)Cc1ccccc1 [(S)-2-[4-(Benzyl-methyl-amino)-butyl]-10,10a-dihydro-5H-imidazo[1,5-b]isoquinoline-1,3-dione]
9.9 nM | CN(CCCCn1c(O)c2n(c1=O)Cc1ccccc1C2)CCc1ccccc1 [(S)-2-[4-(Methyl-phenethyl-amino)-butyl]-10,10a-dihydro-5H-imidazo[1,5-b]isoquinoline-1,3-dione]
5 nM | CN(CCCCCn1c(O)c2n(c1=O)Cc1ccccc1C2)Cc1ccccc1 [(S)-2-[5-(Benzyl-methyl-amino)-pentyl]-10,10a-dihydro-5H-imidazo[1,5-b]isoquinoline-1,3-dione]
11.7 nM | CN(CCCCCn1c(O)c2n(c1=O)Cc1ccccc1C2)CCc1ccccc1 [(S)-2-[5-(Methyl-phenethyl-amino)-pentyl]-10,10a-dihydro-5H-imidazo[1,5-b]isoquinoline-1,3-dione]
9.4 nM | CN(CCCCCCn1c(O)c2n(c1=O)Cc1ccccc1C2)Cc1ccccc1 [(S)-2-[6-(Benzyl-methyl-amino)-hexyl]-10,10a-dihydro-5H-imidazo[1,5-b]isoquinoline-1,3-dione]
3.2 nM | CN(CCCCc1ccccc1)CCn1c(O)c2n(c1=O)Cc1ccccc1C2 [(S)-2-{2-[Methyl-(4-phenyl-butyl)-amino]-ethyl}-10,10a-dihydro-5H-imidazo[1,5-b]isoquinoline-1,3-dione]
2.9 nM | CN(CCCCCc1ccccc1)CCn1c(O)c2n(c1=O)Cc1ccccc1C2 [(S)-2-{2-[Methyl-(5-phenyl-pentyl)-amino]-ethyl}-10,10a-dihydro-5H-imidazo[1,5-b]isoquinoline-1,3-dione]
